Values of other authors as cited in US20250241354A1, “ORAL PRODUCTS” (RAI STRATEGIC HOLDINGS, INC., priority 2024, published 2025).

Conditions: in words

SMILES	solubility
COC(=O)/C=C/C(C)=C\C=C\C(C)=C\C=C\C=C(C)\C=C\C=C(C)\C=C\C(=O)O [bixin, (2E,4E,6E,8E,10E,12E,14E,16Z,18E)-20-methoxy-4,8,13,17-tetramethyl-20-oxoicosa-2,4,6,8,10,12,14,16,18-nonaenoic acid]	soluble in fats and alcohols but insoluble in water
CC(/C=C/C=C(C)/C=C/C(=O)O)=C\C=C\C=C(C)\C=C\C=C(C)\C=C\C(=O)O (stereo in doubt) [norbixin, (2E,4E,6E,8E,10E,12E,14E,16E,18E)-4,8,13,17-tetramethylicosa-2,4,6,8,10,12,14,16,18-nonaenedioic acid]	water-soluble
